{
  "source": "paper PMC3214022",
  "about": "“Plasmodium falciparum Parasites Are Killed by a Transition State Analogue of Purine Nucleoside Phosphorylase in a Primate Animal Model” (PLoS ONE, 2011)",
  "key": {"P. falciparum strain FVO": {"system": "P. falciparum strain FVO", "experiment": "72 h in vitro growth inhibition test, PicoGreen DNA quantitation", "format": "cell-based", "details": "Plasmodium falciparum, chloroquine/quinine resistant strain FVO, 1% hematocrit, 10 µM hypoxanthine", "protocol": "(§1) Briefly, synchronous culture in the schizont stage was cultured for 24 h in media containing 10 µM of hypoxanthine. Ring stage parasite cultures (200 µl per well, with 1% hematocrit and 1% parasitaemia) were then grown for 72 h in the presence of increasing concentrations of the drug. After 72 h in culture, parasite viability was determined by DNA quantitation using PicoGreen (Invitrogen) as described by Quashie and colleagues. The half-maximum inhibitory concentration (IC50) calculation was performed with Origin software (OriginLab) using a nonlinear regression curve fitting. Half-maximum inhibitory concentration (IC50) is the concentration of inhibitor needed to kill 50% of parasites."}, "P. falciparum strain 3D7": {"system": "P. falciparum strain 3D7", "experiment": "72 h in vitro growth inhibition test, PicoGreen DNA quantitation", "format": "cell-based", "details": "Plasmodium falciparum, 3D7, 72 h", "protocol": "as §1"}, "P. falciparum strain Dd2": {"system": "P. falciparum strain Dd2", "experiment": "72 h in vitro growth inhibition test, PicoGreen DNA quantitation", "format": "cell-based", "details": "Plasmodium falciparum, DD2, 72 h", "protocol": "as §1"}, "[1]": {"system": "P. falciparum (FVO strain)", "experiment": "Efficacy study: parasitaemia in infected Aotus monkeys (thick blood smears)", "format": "in vivo, Aotus lemurinus lemurinus", "details": "for Parasitaemia: oral 50 mg kg^−1 twice a day for 7 days, monkeys ITM 1-3 = c3-c5", "protocol": "Laboratory bred Aotus lemurinus lemurinus monkeys (0.75–0.89 kg) were maintained as described. […] Blood samples were collected before the treatment started (t = 0), 0.05 h, 0.5 h, 1 h, 2 h, 6 h, 24 h, 48 h, and 6, 12 and 18 days after the first dose from each monkey and processed as described below. Pharmacokinetic parameters were calculated using PKSolver. For efficacy studies, Aotus monkeys were inoculated intravenously with 5×10^6 parasites of the FVO strain of P. falciparum in an approved treatment protocol. […] Parasitaemia was determined by Giemsa-stained thick blood smears prepared daily from the marginal ear vein [41]. Blood samples were collected from each monkey and transferred to tubes containing lithium heparin, centrifuged and both plasma and blood cells were frozen at −80 °C until analysis. Animals received a physical examination and blood chemistry profiles were monitored after treatment as described previously. Any monkey not responding appropriately to treatment was cured of its infection with mefloquine (40 mg kg^−1). […] The day of clearance is defined as the first of three consecutive days in which the thick blood films are parasite negative. The day of recrudescence is the first of three consecutive days of positive thick blood films after a period of clearance. Suppression is defined as a transient decrease in the parasite count post-treatment without clearance."}, "human erythrocytes": {"system": "human erythrocytes", "experiment": "Polyamine and purine levels in cultured cells after BCX4945 treatment (HPLC, UPLC/MS/MS)", "format": "cell-based", "details": "uninfected erythrocytes, 5 µM BCX4945, 24 h", "protocol": "(§2) Polyamines from 0.5 M PCA extracts were analyzed as the dansyl-derivatives by HPLC/fluorescence on a Waters Millennium system. Protein concentration was determined with a bicinchoninic acid (BCA) protein assay kit according to the manufacturer's instructions (Pierce) using BSA as a standard. Data from biological samples were normalized to the protein content.\n(§3) Samples from blood cells, plasma and media were extracted and analyzed in duplicate. […] Samples were incubated for 20 min at 4 °C and neutralized with 5 M KOH at 10∶1 (v/v, HClO4/KOH) for 20 min at 4 °C. Plates were centrifuged (10 min at 4,000 rpm, 4°C) and supernatants were filtered through a MultiScreen® Filter Plate with Ultracel®-10 Membrane (Millipore). Metabolite and inhibitor levels were quantified by UPLC/MS/MS using a Xevo TQ mass spectrometer (Waters). […] Quantitative determination was performed in ESI positive-ion mode using multiple-reaction monitoring (MRM) mode. The ESI capillary voltage was 0.3 kV, source temperature was set at 150 °C and desolvation temperature at 450 °C. Data acquisition and analysis were carried out by MassLynx V4.1 and QuanLynx software (Waters). The concentration of the metabolites was calculated by interpolation of the observed analyte/internal standard peak-area ratio with the corresponding calibration curve."}, "[2]": {"system": "P. falciparum infected-erythrocytes", "experiment": "Polyamine and purine levels in cultured cells after BCX4945 treatment (HPLC, UPLC/MS/MS)", "format": "cell-based, Plasmodium falciparum", "details": "5 µM BCX4945, 24 h", "protocol": "as §2, §3"}, "[3]": {"details": "oral 50 mg kg^−1 twice a day for seven days"}},
  "note": "Values joined by “and” are separate entries in the source; they are usually repeats but may differ in a detail not shown here. Equal values may be shown once.",
  "data": [
    {"molecule": "Nc1nc2c(CN3CC(O)C(CO)C3)c[nH]c2c(=O)[nH]1", "note": "(stereo not shown) [BCX4945, 4′-deaza-1′-aza-2′-deoxy-1′-(9-methylene)-Immucillin-G]", "values": [
      {"measurement": "IC50", "setting": "P. falciparum strain FVO", "result": "202 ± 27", "unit": "nM"},
      {"measurement": "IC50", "setting": "P. falciparum strain 3D7", "result": "164 ± 20", "unit": "nM"},
      {"measurement": "IC50", "setting": "P. falciparum strain Dd2", "result": "130 ± 22", "unit": "nM"},
      {"measurement": "Parasitaemia", "setting": "[1]; day 1 post-treatment", "result": 0, "unit": "Parasites per µl×10^3"},
      {"measurement": "Parasitaemia", "setting": "[1]; day of treatment 6", "result": 0, "unit": "Parasites per µl×10^3"},
      {"measurement": "Parasitaemia", "setting": "[1]; day −1 (before treatment)", "result": "0.7 Parasites per µl×10^3 and 0.5 Parasites per µl×10^3"},
      {"measurement": "clearance of P. falciparum infection", "setting": "[1]; [3]", "result": "cleared P. falciparum infections between the fourth and the seventh day of treatment"},
      {"measurement": "parasitaemia cleared, of the original infection", "setting": "[1]; [3]", "result": "> 99.99", "unit": "%"},
      {"measurement": "time monkeys remained parasite-negative post-treatment", "setting": "[1]; [3]", "result": "up to nine days"},
      {"measurement": "response to treatment (category)", "setting": "[1]; oral BCX4945, Aotus model", "result": "clearance and recrudescence"},
      {"measurement": "Adenosine, cell pellet", "setting": "human erythrocytes", "result": "2.60±0.03 (0.2) nmoles/mg protein"},
      {"measurement": "Adenosine, supernatant", "setting": "human erythrocytes", "result": "0.6±0.2 (0.2) µM"},
      {"measurement": "BCX4945 level, cell pellet", "setting": "human erythrocytes", "result": "36±12 (0.07) nmoles/mg protein"},
      {"measurement": "BCX4945 level, supernatant", "setting": "human erythrocytes", "result": "4.0±0.2 (0.01) µM"},
      {"measurement": "Hypoxanthine, cell pellet", "setting": "human erythrocytes", "result": 0, "unit": "nmoles/mg protein"},
      {"measurement": "Hypoxanthine, supernatant", "setting": "human erythrocytes", "result": "0 (0.04) µM"},
      {"measurement": "Inosine, cell pellet", "setting": "human erythrocytes", "result": "37±6 (0.04) nmoles/mg protein"},
      {"measurement": "Inosine, supernatant", "setting": "human erythrocytes", "result": "8±3 (0.08) µM"},
      {"measurement": "MTA, cell pellet", "setting": "human erythrocytes", "result": 0, "unit": "nmoles/mg protein"},
      {"measurement": "MTA, supernatant", "setting": "human erythrocytes", "result": 0, "unit": "µM"},
      {"measurement": "MTI, cell pellet", "setting": "human erythrocytes", "result": 0, "unit": "nmoles/mg protein"},
      {"measurement": "MTI, supernatant", "setting": "human erythrocytes", "result": 0, "unit": "µM"},
      {"measurement": "Putrescine, cell pellet", "setting": "human erythrocytes", "result": 0, "unit": "nmoles/mg protein"},
      {"measurement": "Spermidine, cell pellet", "setting": "human erythrocytes", "result": "0.060±0.003", "unit": "nmoles/mg protein"},
      {"measurement": "Spermine, cell pellet", "setting": "human erythrocytes", "result": "0.030±0.002", "unit": "nmoles/mg protein"},
      {"measurement": "Adenosine, cell pellet", "setting": "[2]", "result": "10±4", "unit": "nmoles/mg protein"},
      {"measurement": "Adenosine, supernatant", "setting": "[2]", "result": "0.4±0.2 (0.08) µM"},
      {"measurement": "BCX4945 level, cell pellet", "setting": "[2]", "result": "20±6 (0.004) nmoles/mg protein"},
      {"measurement": "BCX4945 level, supernatant", "setting": "[2]", "result": "5±0.6 (0.0002) µM"},
      {"measurement": "Hypoxanthine, cell pellet", "setting": "[2]", "result": "0 (0.007) nmoles/mg protein"},
      {"measurement": "Hypoxanthine, supernatant", "setting": "[2]", "result": "0 (0.004) µM"},
      {"measurement": "Inosine, cell pellet", "setting": "[2]", "result": "19±5", "unit": "nmoles/mg protein"},
      {"measurement": "Inosine, supernatant", "setting": "[2]", "result": "60 µM and 61±5 (0.0001) µM"},
      {"measurement": "MTA, cell pellet", "setting": "[2]", "result": "0.6±0.1", "unit": "nmoles/mg protein"},
      {"measurement": "MTA, supernatant", "setting": "[2]", "result": 0, "unit": "µM"},
      {"measurement": "MTI, cell pellet", "setting": "[2]", "result": "0.6±0.1", "unit": "nmoles/mg protein"},
      {"measurement": "MTI, supernatant", "setting": "[2]", "result": "0.3±0.1 (0.03) µM"},
      {"measurement": "Putrescine, cell pellet", "setting": "[2]", "result": "0.2±0.1 (0.01) nmoles/mg protein"},
      {"measurement": "Spermidine, cell pellet", "setting": "[2]", "result": "1.1±0.3 (0.02) nmoles/mg protein"},
      {"measurement": "Spermine, cell pellet", "setting": "[2]", "result": "0.07±0.03 (0.01) nmoles/mg protein"}
    ]}
  ]
}
